From ChEMBL document CHEMBL1153945 (Bioorg Med Chem, 2009)
pKi: −log10 of the molar value.

What was measured:
Nitric oxide synthase 1 = Nitric oxide synthase 1 (Rattus norvegicus, UniProt P29476)
Description: Inhibition of rat recombinant nNOS expressed in Escherichia coli assessed as nitric oxide formation by hemoglobin capture assay

Nitric oxide synthase 3 = biological target: T1, Nitric oxide synthase 3 (Bos taurus, UniProt P29473)
T1 sequence (P29473 whole entry): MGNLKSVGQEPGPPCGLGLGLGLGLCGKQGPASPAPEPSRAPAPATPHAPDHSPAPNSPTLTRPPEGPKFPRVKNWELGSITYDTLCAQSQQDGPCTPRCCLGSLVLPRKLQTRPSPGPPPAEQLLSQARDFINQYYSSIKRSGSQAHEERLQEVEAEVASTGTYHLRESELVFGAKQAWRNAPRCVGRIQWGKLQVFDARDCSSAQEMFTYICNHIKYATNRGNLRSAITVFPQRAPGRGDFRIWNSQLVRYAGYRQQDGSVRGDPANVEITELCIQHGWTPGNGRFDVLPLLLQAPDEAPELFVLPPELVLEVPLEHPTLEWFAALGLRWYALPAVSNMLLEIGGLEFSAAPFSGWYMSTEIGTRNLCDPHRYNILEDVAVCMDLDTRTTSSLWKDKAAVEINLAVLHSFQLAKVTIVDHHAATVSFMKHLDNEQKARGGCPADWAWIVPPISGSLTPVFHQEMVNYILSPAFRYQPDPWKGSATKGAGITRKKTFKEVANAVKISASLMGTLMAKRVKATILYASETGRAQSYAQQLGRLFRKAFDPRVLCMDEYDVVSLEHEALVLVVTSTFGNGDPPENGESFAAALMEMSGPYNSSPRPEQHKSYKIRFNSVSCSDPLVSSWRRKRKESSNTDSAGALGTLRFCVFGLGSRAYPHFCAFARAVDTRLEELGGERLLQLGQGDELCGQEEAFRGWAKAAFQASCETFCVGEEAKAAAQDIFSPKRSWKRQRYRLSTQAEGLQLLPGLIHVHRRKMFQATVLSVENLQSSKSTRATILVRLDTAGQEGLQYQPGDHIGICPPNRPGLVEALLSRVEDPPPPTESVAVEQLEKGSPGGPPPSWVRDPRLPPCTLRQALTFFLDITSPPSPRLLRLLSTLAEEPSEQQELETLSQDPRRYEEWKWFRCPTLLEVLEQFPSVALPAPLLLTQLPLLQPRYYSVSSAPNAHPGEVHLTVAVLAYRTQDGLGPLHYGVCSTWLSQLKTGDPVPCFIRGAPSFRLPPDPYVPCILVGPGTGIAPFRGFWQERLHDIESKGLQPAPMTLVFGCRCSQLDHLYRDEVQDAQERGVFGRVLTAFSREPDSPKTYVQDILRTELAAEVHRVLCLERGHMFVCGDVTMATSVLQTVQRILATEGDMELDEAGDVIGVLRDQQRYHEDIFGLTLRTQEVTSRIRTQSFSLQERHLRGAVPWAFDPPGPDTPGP
Description: Inhibition of bovine recombinant eNOS expressed in Escherichia coli assessed as nitric oxide formation by hemoglobin capture assay

[1] = biological target: T2, Nitric oxide synthase, inducible (Mus musculus, UniProt P29477)
T2 sequence (P29477 whole entry): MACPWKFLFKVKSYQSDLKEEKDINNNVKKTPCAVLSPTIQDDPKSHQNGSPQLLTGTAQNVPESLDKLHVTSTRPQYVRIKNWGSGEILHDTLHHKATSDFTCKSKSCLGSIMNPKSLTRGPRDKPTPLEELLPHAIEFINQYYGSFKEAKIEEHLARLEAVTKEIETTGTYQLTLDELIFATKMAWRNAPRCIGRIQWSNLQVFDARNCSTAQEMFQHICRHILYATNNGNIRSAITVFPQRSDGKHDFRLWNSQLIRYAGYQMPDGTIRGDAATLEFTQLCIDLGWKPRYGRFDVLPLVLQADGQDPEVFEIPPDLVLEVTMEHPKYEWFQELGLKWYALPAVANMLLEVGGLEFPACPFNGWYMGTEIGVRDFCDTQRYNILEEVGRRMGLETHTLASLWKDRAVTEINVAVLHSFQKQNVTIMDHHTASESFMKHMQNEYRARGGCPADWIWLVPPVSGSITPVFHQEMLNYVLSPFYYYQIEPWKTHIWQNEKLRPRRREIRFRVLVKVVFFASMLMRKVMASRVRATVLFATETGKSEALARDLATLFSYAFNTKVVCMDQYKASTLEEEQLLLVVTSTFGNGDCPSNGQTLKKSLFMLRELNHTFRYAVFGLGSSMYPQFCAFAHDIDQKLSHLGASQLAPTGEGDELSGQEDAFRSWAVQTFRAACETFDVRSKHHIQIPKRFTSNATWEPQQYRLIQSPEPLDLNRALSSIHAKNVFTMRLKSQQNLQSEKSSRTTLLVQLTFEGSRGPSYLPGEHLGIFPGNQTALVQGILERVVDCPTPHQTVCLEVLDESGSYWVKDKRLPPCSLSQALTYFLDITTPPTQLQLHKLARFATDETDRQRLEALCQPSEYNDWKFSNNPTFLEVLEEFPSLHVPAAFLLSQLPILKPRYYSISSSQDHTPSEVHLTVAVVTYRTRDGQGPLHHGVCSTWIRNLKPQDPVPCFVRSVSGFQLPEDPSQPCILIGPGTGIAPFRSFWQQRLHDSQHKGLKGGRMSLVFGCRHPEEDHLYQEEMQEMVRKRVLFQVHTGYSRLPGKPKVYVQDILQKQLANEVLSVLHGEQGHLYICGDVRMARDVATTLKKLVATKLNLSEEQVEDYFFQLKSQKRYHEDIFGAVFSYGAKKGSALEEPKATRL
Description: Inhibition of mouse recombinant iNOS expressed in Escherichia coli assessed as nitric oxide formation by hemoglobin capture assay

Sequence of Nitric oxide synthase 1 (P29476 whole entry): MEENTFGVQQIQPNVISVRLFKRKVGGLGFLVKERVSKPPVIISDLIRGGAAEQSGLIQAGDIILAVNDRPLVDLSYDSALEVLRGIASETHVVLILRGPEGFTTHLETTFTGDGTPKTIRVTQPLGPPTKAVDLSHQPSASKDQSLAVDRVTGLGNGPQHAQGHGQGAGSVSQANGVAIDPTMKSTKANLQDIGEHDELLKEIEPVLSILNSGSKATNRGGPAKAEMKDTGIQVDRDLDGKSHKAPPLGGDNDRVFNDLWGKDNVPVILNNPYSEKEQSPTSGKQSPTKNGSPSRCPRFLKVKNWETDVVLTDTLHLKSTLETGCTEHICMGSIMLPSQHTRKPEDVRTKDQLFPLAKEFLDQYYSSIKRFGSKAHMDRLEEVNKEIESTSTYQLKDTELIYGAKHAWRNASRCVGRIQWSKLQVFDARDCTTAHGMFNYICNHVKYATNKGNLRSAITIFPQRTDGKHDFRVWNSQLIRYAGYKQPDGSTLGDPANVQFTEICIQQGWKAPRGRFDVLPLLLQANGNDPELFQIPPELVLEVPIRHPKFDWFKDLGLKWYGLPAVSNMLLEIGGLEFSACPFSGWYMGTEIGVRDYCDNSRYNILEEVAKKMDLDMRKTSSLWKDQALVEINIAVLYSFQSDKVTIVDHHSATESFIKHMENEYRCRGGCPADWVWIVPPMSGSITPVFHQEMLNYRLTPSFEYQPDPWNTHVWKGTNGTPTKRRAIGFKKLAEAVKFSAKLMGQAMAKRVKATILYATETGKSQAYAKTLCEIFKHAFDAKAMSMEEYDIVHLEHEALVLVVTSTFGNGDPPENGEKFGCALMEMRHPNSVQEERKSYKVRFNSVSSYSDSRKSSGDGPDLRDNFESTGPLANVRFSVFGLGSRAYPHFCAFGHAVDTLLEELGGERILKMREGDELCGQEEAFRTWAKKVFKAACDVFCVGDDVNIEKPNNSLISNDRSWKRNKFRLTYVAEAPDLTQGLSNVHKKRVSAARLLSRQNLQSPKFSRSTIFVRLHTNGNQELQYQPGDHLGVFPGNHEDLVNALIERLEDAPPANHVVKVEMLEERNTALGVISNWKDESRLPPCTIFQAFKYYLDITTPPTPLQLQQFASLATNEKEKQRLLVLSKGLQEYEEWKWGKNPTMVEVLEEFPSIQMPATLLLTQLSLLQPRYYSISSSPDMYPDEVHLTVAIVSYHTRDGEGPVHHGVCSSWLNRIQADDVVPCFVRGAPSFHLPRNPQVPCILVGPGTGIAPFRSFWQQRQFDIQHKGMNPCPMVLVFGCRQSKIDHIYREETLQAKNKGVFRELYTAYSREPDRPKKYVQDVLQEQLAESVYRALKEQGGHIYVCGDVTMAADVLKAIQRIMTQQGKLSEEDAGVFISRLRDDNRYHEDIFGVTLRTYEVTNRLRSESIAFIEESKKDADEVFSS

Compound `Cc1cc(N)nc(C[C@H]2CNC[C@H]2OCCNC(=O)Cc2cccc(F)c2)c1` (racemic) has a pKi (Nitric oxide synthase 1) of 5.30 and a pKi (Nitric oxide synthase 3) of 3.97.
In the case of `Cc1cc(N)nc(C[C@H]2CNC[C@H]2NC(=O)CNCCc2cccc(F)c2)c1` (racemic), the pKi (Nitric oxide synthase 1) was 7.28.
`Cc1cc(N)nc(C[C@H]2CNC[C@H]2NCCOCCc2cccc(F)c2)c1` (racemic) gave a pKi [1] of 5.40, a pKi (Nitric oxide synthase 1) of 6.40 and a pKi (Nitric oxide synthase 3) of 4.48.
In the case of `Cc1cc(N)nc(C[C@H]2CNC[C@H]2OCC(=O)NCCc2cccc(F)c2)c1` (racemic), the pKi (Nitric oxide synthase 3) was 3.84.
